From patent US12528767B2, “HDAC6 inhibitors and uses thereof” (Eikonizo Therapeutics, Inc., priority 2019, dated 2026)
Like-named read-outs stand apart in the source and are kept apart here.

Legend:
Full length Human HDAC6 = target: T1, Full length Human HDAC6 (Homo sapiens, UniProt Q9UBN7); settings: for Selectivity (6 v 8) (fold): ratio of HDAC8 IC50/HDAC6 IC50
T1 sequence (Q9UBN7 1-1215): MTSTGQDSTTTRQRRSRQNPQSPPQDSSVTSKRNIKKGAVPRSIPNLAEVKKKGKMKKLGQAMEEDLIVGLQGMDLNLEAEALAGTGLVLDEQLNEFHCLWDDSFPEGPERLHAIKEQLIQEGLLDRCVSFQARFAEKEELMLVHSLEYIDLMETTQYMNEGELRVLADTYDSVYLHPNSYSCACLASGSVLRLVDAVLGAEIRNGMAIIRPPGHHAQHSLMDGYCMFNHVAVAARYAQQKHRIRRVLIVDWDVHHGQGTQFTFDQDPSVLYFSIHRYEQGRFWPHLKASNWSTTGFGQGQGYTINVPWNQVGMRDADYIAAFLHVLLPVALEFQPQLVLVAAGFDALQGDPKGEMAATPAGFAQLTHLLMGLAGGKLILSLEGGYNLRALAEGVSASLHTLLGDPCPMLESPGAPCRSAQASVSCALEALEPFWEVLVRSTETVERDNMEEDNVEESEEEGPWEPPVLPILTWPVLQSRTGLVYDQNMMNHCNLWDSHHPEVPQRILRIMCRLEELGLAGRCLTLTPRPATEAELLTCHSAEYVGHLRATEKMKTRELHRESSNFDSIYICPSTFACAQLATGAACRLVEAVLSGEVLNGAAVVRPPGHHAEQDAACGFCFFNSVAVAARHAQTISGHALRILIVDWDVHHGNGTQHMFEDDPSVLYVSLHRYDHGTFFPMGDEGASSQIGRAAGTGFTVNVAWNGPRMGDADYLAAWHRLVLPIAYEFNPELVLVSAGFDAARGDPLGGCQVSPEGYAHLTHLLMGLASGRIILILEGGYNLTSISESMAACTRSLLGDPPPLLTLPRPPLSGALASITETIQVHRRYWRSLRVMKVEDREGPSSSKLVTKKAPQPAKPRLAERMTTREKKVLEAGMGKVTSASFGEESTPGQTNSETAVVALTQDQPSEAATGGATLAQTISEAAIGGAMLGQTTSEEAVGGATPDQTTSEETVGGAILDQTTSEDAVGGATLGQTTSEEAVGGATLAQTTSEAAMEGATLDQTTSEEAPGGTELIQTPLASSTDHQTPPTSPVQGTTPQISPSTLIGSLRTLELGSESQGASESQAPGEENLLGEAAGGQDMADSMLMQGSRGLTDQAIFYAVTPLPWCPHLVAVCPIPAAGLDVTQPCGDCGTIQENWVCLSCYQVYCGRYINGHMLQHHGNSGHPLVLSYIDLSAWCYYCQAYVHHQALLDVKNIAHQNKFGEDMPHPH

[1] = In vivo assessment of brain penetration in mice (IV 1 mg/kg, plasma and brain levels); settings: mouse, BL/6 mice; for Kp at 15 min / Kp at 60 min: brain and plasma, brain:plasma; for Kp at 15 min: read-out: Mouse B:P at 15 min; for Kp at 60 min: read-out: Mouse B:P at 60 min
Full length Human HDAC8 = target: T2, Full length Human HDAC8 (Homo sapiens, UniProt Q9BY41)
T2 sequence (Q9BY41 1-377): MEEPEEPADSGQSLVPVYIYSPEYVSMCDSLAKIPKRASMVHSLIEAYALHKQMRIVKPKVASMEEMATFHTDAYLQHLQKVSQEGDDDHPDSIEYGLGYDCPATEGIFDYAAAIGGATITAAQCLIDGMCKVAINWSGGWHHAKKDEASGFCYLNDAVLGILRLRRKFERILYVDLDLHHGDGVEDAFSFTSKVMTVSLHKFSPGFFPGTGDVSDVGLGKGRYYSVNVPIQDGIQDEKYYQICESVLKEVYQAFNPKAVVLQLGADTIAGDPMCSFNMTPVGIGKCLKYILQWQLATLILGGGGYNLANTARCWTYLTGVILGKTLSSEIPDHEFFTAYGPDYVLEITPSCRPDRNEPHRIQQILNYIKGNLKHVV

Human HDAC7 aa 518-end = target: T3, Human HDAC7 aa 518-end (Homo sapiens, UniProt Q8WUI4)
T3 sequence (Q8WUI4 518-952 limits assumed): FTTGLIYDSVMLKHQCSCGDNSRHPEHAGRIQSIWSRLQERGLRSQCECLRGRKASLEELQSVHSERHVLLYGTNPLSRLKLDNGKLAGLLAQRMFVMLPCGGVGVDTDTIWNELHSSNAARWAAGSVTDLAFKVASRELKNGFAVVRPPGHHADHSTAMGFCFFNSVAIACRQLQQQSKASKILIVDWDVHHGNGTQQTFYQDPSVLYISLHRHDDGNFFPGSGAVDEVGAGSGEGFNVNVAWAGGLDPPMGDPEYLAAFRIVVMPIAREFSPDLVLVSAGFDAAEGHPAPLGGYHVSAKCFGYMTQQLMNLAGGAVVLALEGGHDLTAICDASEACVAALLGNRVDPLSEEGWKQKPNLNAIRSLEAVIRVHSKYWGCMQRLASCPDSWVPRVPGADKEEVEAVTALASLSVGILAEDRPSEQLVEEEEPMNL

[2] = target: Human HDAC9 a.a. 604-1066 (Homo sapiens, UniProt Q9UKV0)
Full length Human HDAC1 = Full length Human HDAC1 (Homo sapiens, UniProt Q13547)
[3] = Metabolic stability in liver microsomes: Mouse BL6; assay type: in vitro ADME; settings: 1 μM compound, 0.3 mg/mL protein, NADPH, 37° C., read-out: Mouse BL6 Liver Microsome Stability Half-life
[4] = system: tubulin acetylation (acTubK40) in undifferentiated SH-SY5Y cells; test: Tubulin acetylation in cells (Western immunoblot); assay type: cell-based; settings: Homo sapiens, 4 hours, acetylTubulin/Tubulin ratio
Description: (§1) Compound EC50 Determination for Tubulin- and Histone H3 Acetylation in Cells
(§2) Estimation of the EC50 for exemplary compounds to alter target protein acetylation in undifferentiated SH-SY5Y cells was performed using standard Western immunoblotting methods. […] SH-SY5Y cells were grown to 90% confluency on sterile cell growth plates. 10 mM compound stocks prepared in DMSO and two-fold serial dilutions were prepared from the stock and applied to cells to achieve a 12-point concentration range in cell media from an upper limit of 10 μM to a lower limit of DMSO [zero compound].
(§3) Cells were incubated under normal growth conditions (37° C., 5% CO2) in the presence of compound for 4 hours, then media was aspirated and cells were rinsed two times with 1×DPBS with calcium and magnesium warmed to 37° C. Cells were frozen directly on the plates on a bed of dry ice for 5 min, then stored at −80° C. until protein extraction.
(§4) Protein extraction was performed in RIPA buffer (50 mM Tris-HCL pH 8.0, 150 mM NaCl, 0.5% sodium deoxycholate, 0.1% sodium dodecyl sulfate, 1% NP-40) supplemented with Pierce protease inhibitor mini tables (Thermofisher cat #A32953) exactly as described by the manufacturer. After thawing the plate on a bed of wet ice for 10 minutes, lysis buffer was added to each well (e.g. 100 μL per well of a 24-well plate) and cells scraped from the bottom of each well. Lysates were then sonicated over ice (40% power, 30 pulses of 1 second on, 2 seconds off), centrifuged at 16,000 g for 10 min at 4° C., and the clarified supernatant saved. Protein concentration was determined by BCA assay and at least 3 μg prepared per lane by combining lysate supernatant aliquot with 1/3 total volume of 3× gel loading buffer containing DTT (NEB Cat. #B7703S), heating for 5 minutes at 95° C., briefly centrifuging and then loading on an SDS-PAGE gel.
(§5) Proteins were resolved on a 4-20% Tris-Glycine gel and transferred to PVDF membrane using an iBlot2 dry transfer system. The membrane was then blocked for at least 30 minutes at room temperature in TBST containing 5% milk or 5% bovine serum albumin, then incubated overnight at 4° C. with a single primary antibody from the following table:
(§6) Following primary antibody incubation, membranes were washed, incubated in secondary antibody, washed and incubated in ECL prime western blotting detection reagent (Amersham #RPN223) with membrane exposure and ECL signal capture in a LI-COR Odyssey Imaging system. […] Subsequent densitometry of immunoreactive bands was performed using the ImageStudio software and Microsoft Excel resulting in the following ratios: acetylTubulin/Tubulin and acetyl histone H3K9/histone H3. Raw ratios were uploaded to GraphPad Prism v7.0 with EC50 values modeled using the variable slope equation for log-transformed data [log(agonist) vs response in Prism].

[5] = system: histone H3 acetylation (acH3K9) in undifferentiated SH-SY5Y cells; test: Histone H3 acetylation in cells (Western immunoblot); assay type: cell-based; settings: Homo sapiens, 4 hours, acetyl histone H3K9/histone H3 ratio
Description: as §1, §2, §3, §4, §5, §6

Full length Human HDAC10 = target: T4, Full length Human HDAC10 (Homo sapiens, UniProt Q969S8)
T4 sequence (Q969S8 1-669): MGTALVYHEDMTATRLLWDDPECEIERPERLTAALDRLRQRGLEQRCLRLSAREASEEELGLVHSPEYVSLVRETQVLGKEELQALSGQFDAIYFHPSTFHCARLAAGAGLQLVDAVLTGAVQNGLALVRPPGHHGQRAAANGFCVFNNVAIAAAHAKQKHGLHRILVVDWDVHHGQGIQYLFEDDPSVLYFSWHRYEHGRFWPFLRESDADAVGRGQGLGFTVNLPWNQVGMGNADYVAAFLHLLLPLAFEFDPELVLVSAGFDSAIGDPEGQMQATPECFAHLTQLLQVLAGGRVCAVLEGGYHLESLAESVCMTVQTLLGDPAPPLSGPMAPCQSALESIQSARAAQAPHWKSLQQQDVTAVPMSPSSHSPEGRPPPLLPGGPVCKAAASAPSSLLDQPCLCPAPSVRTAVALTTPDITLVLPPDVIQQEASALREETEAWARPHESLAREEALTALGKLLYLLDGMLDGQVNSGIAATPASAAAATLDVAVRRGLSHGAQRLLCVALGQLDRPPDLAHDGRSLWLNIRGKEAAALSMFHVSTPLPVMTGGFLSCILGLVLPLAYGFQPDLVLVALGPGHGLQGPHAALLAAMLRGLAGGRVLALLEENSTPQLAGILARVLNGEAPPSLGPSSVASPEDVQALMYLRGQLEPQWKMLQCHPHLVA

[6] = brain, read-out: Mouse Brain Conc (μM) at 15 min
[7] = brain, read-out: Mouse Brain Conc (μM) at 60 min
[8] = plasma, read-out: Mouse Plasma Conc (μM) at 15 min
[9] = plasma, read-out: Mouse Plasma Conc (μM) at 60 min
[10] = read-out: In vitro enzymatic IC50, HDAC Paralog 6, Table 2
[11] = read-out: In vitro enzymatic IC50, HDAC Paralog 8, Table 2

Chain of Human HDAC9 a.a. 604-1066 (Q9UKV0 604-1066 isoform Q9UKV0-5): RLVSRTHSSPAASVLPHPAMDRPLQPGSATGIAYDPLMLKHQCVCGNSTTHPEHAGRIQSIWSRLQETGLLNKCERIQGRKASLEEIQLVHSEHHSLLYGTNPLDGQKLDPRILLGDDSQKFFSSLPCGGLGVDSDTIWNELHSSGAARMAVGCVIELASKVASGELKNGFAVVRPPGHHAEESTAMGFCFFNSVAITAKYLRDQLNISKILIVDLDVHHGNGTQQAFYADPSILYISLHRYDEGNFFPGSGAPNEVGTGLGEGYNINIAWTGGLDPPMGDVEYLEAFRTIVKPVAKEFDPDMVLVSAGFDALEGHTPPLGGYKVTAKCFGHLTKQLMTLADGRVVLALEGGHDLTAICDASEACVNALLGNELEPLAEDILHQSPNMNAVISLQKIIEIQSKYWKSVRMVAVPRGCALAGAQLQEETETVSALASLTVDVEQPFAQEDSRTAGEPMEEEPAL
Chain of Full length Human HDAC1 (Q13547 whole entry): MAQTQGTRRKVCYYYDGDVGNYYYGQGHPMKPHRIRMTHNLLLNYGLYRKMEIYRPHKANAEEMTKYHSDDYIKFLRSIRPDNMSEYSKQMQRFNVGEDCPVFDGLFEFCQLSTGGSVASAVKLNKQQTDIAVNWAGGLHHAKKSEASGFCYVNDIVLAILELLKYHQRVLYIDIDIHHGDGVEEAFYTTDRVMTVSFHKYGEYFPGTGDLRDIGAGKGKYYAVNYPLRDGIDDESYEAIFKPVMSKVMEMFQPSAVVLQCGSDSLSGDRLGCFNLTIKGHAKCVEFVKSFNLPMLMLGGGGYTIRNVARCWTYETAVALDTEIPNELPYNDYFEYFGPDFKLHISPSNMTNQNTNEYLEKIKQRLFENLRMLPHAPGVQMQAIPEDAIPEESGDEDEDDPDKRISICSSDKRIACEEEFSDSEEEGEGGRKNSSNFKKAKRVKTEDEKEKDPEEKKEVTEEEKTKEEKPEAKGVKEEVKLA

SMILES | Selectivity (6 v 8) (fold) (Full length Human HDAC6; Table 1, number) | Selectivity (6 v 8) (fold) (Full length Human HDAC6; Table 1, range class) | IC50 (Full length Human HDAC6) [nM] | IC50 (Full length Human HDAC8) [nM] | IC50 (Human HDAC7 aa 518-end) [µM] | further results
O=C(NO)c1ccc2c(c1)C[C@@H]1CCCN1C2 (single isomer, unassigned) [compound 121] | 80.9 | III (III: >10-100) | – | – | – | concentration at 15 min [1, 6]: 0.19 µM; concentration at 60 min [1, 7]: 0.06 µM; concentration at 15 min [1, 8]: 0.96 µM; concentration at 60 min [1, 9]: 0.01 µM; Kp at 15 min [1]: 0.19; Kp at 60 min [1]: 5.89
C[C@@H]1C[C@H]2c3c(F)cc(C(=O)NO)cc3CCN2C1 (single isomer, unassigned) [compound 152] | – | – | 1 to 100 | 1000 to 10000 | 0.1 to 1 | IC50 [2]: 100 to 1000 nM; IC50 (Full length Human HDAC1): 10 to 100 µM
O=C(NO)c1ccc(CN2C3CCCC2COC3)c(F)c1 [compound 52] | 35.5 | III (III: >10-100) | 1 to 100 | 100 to 1000 | – | half-life at 1 μM [3]: 290 min
O=C(NO)c1cc(F)c2c(c1)CN(CC13C4C5C6C4C1C6C53)CC2 (stereo not drawn) [compound 116, 2-(cuban-1-ylmethyl)-5-fluoro-N-hydroxy-1,2,3,4-tetrahydroisoquinoline-7-carboxamide] | 11 | III (III: >10-100) | 1 to 100 | 100 to 1000 | – | concentration at 15 min [1, 6]: 0.39 µM; concentration at 60 min [1, 7]: 0 µM; concentration at 15 min [1, 8]: 0.25 µM; concentration at 60 min [1, 9]: 0.02 µM; Kp at 15 min [1]: 1.57; Kp at 60 min [1]: 0
Cn1c2c(c3ccccc31)CCN(Cc1ccc(C(=O)NO)cc1F)C2 [compound 45] | – | – | 1 to 100 | 100 to 1000 | – | EC50 [4]: 1700 nM; EC50 [5]: > 10 µM
O=C(NO)c1ccc(CN2C3CCC2COC3)c(F)c1 [compound 59] | – | – | 1 to 100 | 100 to 1000 | 1 to 10 | IC50 (Full length Human HDAC6; [10]): 1 to 100 nM; IC50 (Full length Human HDAC8; [11]): 100 to 1000 nM; IC50 (Full length Human HDAC10): 10 to 100 µM
O=C(NO)c1cc(F)c2c(c1)CN1CCC[C@@H]1C2 (single isomer, unassigned) [compound 124] | – | – | 1 to 100 | 1000 to 10000 | 1 to 10 | IC50 [2]: > 100000 nM; IC50 (Full length Human HDAC1): > 100 µM
O=C(NO)c1cc(F)c2c(c1)CCN(C1CC3(COC3)C1)C2 [compound 111] | 461.1 | IV (IV: >100-1000) | 1 to 100 | 10000 to 100000 | 10 to 100 | IC50 (Full length Human HDAC6; [10]): 1 to 100 nM; IC50 (Full length Human HDAC8; [11]): 10000 to 100000 nM; IC50 (Full length Human HDAC10): 10 to 100 µM
